Measured values from ChEMBL document CHEMBL4330132, “5-Keto-3-cyano-2,4-diaminothiophenes as selective maternal embryonic leucine zipper kinase inhibitors” (Bioorg Med Chem Lett, 2019).

What was measured:
[1] = biological target: Mitogen-activated protein kinase kinase kinase 20 (Homo sapiens) (UniProt Q9NYL2); assay: Binding affinity to wild-type human partial length ZAK (M1 to L331 residues) expressed in bacterial expression system assessed as residual binding level at 1 uM by Kinomescan method relative to control
[2] = biological target: Serine/threonine-protein kinase 35 (Homo sapiens) (UniProt Q8TDR2); assay: Binding affinity to wild-type human partial length STK35 (G182 to A534 residues) expressed in bacterial expression system assessed as residual binding level at 1 uM by Kinomescan method relative to control
[3] = biological target: Mitogen-activated protein kinase 13 (Homo sapiens) (UniProt O15264); assay: Binding affinity to wild-type human full length p38-delta (M1 to L365 residues) expressed in bacterial expression system assessed as residual binding level at 1 uM by Kinomescan method relative to control
[4] = biological target: Cyclin-dependent kinase 19 (Homo sapiens) (UniProt Q9BWU1); assay: Binding affinity to wild-type human partial length CDK11 (M1 to N360 residues) expressed in bacterial expression system assessed as residual binding level at 1 uM by Kinomescan method relative to control
[5] = biological target: Serine/threonine-protein kinase PAK 2 (Homo sapiens) (UniProt Q13177); assay: Binding affinity to wild-type human partial length PAK2 (P151 to R525 residues) expressed in bacterial expression system assessed as residual binding level at 1 uM by Kinomescan method relative to control
[6] = biological target: Tyrosine-protein kinase receptor UFO (Homo sapiens) (UniProt P30530); assay: Binding affinity to wild-type human partial length AXL (R497 to Y821 residues) expressed in bacterial expression system assessed as residual binding level at 1 uM by Kinomescan method relative to control
[7] = biological target: Dual specificity protein kinase CLK2 (Homo sapiens) (UniProt P49760); assay: Binding affinity to wild-type human partial length CLK2 (D144 to R498 residues) expressed in bacterial expression system assessed as residual binding level at 1 uM by Kinomescan method relative to control
[8] = biological target: Ephrin type-A receptor 7 (Homo sapiens) (UniProt Q15375); assay: Binding affinity to wild-type human partial length EPHA7 (Y608 to S912 residues) expressed in bacterial expression system assessed as residual binding level at 1 uM by Kinomescan method relative to control
[9] = biological target: Serine/threonine-protein kinase PAK 6 (Homo sapiens) (UniProt Q9NQU5); assay: Binding affinity to wild-type human partial length PAK6 (N298 to C681 residues) expressed in bacterial expression system assessed as residual binding level at 1 uM by Kinomescan method relative to control
[10] = biological target: Tyrosine-protein kinase ABL1 (Homo sapiens) (UniProt P00519); assay: Binding affinity to wild-type human phosphorylated ABL1 (S229 to K512 residues) expressed in mammalian expression system assessed as residual binding level at 1 uM by Kinomescan method relative to control
[11] = biological target: Ribosomal protein S6 kinase alpha-5 (Homo sapiens) (UniProt O75582); assay: Binding affinity to wild-type human partial length N-terminal RPS6KA5 kinase domain 1 expressed in bacterial expression system assessed as residual binding level at 1 uM by Kinomescan method relative to control
[12] = biological target: NUAK family SNF1-like kinase 1 (Homo sapiens) (UniProt O60285); assay: Binding affinity to wild-type human partial length ARK5 (E25 to I332 residues) expressed in bacterial expression system assessed as residual binding level at 1 uM by Kinomescan method relative to control
[13] = biological target: Transient receptor potential cation channel subfamily M member 6 (Homo sapiens) (UniProt Q9BX84); assay: Binding affinity to wild-type human partial length TRPM6 (Q1723 to I1998 residues) expressed in mammalian expression system assessed as residual binding level at 1 uM by Kinomescan method relative to control
[14] = biological target: Misshapen-like kinase 1 (Homo sapiens) (UniProt Q8N4C8); assay: Binding affinity to wild-type human partial length MINK (M1 to K312 residues) expressed in mammalian expression system assessed as residual binding level at 1 uM by Kinomescan method relative to control
[15] = biological target: Rhodopsin kinase GRK1 (Homo sapiens) (UniProt Q15835); assay: Binding affinity to wild-type human full length GRK1 (M1 to S563 residues) expressed in mammalian expression system assessed as residual binding level at 1 uM by Kinomescan method relative to control
[16] = biological target: Serine/threonine-protein kinase Nek3 (Homo sapiens) (UniProt P51956); assay: Binding affinity to wild-type human full length NEK3 (M1 to R506 residues) expressed in mammalian expression system assessed as residual binding level at 1 uM by Kinomescan method relative to control
[17] = biological target: NUAK family SNF1-like kinase 2 (Homo sapiens) (UniProt Q9H093); assay: Binding affinity to wild-type human partial length SNARK (P22 to A333 residues) expressed in mammalian expression system assessed as residual binding level at 1 uM by Kinomescan method relative to control
[18] = test system: Tyrosine-protein kinase ABL1 (Homo sapiens), P00519 [M351T]; assay: Binding affinity to human phosphorylated ABL1 M351T mutant (S229 to K512 residues) expressed in mammalian expression system assessed as residual binding level at 1 uM by Kinomescan method relative to control
[19] = biological target: Cyclin-dependent kinase 4/cyclin D1 (Homo sapiens) (UniProt P11802+P24385); assay: Binding affinity to wild-type human full length CDK4/cyclinD1 (M1 to E303 residues) expressed in mammalian expression system assessed as residual binding level at 1 uM by Kinomescan method relative to control
[20] = biological target: Tyrosine-protein kinase TXK (Homo sapiens) (UniProt P42681); assay: Binding affinity to wild-type human partial length TXK (L238 to W527 residues) expressed in bacterial expression system assessed as residual binding level at 1 uM by Kinomescan method relative to control
[21] = biological target: RAC-beta serine/threonine-protein kinase (Homo sapiens) (UniProt P31751); assay: Binding affinity to wild-type human partial length AKT2 expressed in bacterial expression system assessed as residual binding level at 1 uM by Kinomescan method relative to control
[22] = biological target: cAMP-dependent protein kinase catalytic subunit PRKX (Homo sapiens) (UniProt P51817); assay: Binding affinity to wild-type human partial length PRKX (M1 to F358 residues) expressed in bacterial expression system assessed as residual binding level at 1 uM by Kinomescan method relative to control
[23] = biological target: Protein kinase C epsilon type (Homo sapiens) (UniProt Q02156); assay: Binding affinity to wild-type human partial length PRKCE (A378 to P737 residues) expressed in mammalian expression system assessed as residual binding level at 1 uM by Kinomescan method relative to control
[24] = biological target: High affinity nerve growth factor receptor (Homo sapiens) (UniProt P04629); assay: Binding affinity to wild-type human partial length TRKA (G475 to G790 residues) expressed in mammalian expression system assessed as residual binding level at 1 uM by Kinomescan method relative to control
[25] = test system: Mast/stem cell growth factor receptor Kit (Homo sapiens), P10721 [L576P]; assay: Binding affinity to human partial length KIT L576P mutant (Y545 to D952 residues) expressed in bacterial expression system assessed as residual binding level at 1 uM by Kinomescan method relative to control

Chain of Ribosomal protein S6 kinase alpha-5 (Homo sapiens) (O75582 whole entry, looked up, the tested form may be a part): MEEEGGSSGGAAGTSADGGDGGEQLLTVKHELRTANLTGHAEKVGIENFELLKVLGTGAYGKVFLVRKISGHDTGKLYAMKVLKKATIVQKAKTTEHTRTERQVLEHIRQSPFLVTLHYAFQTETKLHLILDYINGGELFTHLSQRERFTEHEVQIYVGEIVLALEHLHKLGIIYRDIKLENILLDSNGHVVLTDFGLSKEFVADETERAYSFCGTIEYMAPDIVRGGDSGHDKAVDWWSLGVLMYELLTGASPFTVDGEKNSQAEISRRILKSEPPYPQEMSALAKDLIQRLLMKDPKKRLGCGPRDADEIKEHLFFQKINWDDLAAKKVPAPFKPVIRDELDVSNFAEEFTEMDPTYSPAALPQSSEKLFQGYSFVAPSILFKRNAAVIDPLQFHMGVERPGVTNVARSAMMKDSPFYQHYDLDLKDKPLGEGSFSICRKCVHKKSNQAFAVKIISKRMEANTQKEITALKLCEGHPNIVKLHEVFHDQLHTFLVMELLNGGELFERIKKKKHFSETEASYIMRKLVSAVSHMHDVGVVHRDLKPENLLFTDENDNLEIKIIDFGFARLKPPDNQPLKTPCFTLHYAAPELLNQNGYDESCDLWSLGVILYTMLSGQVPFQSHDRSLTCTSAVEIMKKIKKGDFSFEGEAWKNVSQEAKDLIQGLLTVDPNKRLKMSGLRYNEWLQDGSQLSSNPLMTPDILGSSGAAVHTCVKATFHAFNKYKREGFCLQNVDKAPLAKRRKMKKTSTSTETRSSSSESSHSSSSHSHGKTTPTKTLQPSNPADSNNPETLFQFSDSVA
Chain of cAMP-dependent protein kinase catalytic subunit PRKX (Homo sapiens) (P51817 whole entry, the tested form may be a part): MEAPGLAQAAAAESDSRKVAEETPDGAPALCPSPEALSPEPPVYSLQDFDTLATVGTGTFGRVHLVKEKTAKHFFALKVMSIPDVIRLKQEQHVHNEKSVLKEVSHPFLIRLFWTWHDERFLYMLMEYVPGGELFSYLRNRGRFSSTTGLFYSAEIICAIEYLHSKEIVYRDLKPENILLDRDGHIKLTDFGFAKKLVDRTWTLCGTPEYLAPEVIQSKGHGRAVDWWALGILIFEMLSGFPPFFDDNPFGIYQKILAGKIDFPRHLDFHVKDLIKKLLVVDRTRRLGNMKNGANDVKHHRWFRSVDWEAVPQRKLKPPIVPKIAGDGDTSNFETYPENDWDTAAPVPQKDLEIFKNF
Chain of Misshapen-like kinase 1 (Homo sapiens) (Q8N4C8 whole entry, looked up, the tested form may be a part): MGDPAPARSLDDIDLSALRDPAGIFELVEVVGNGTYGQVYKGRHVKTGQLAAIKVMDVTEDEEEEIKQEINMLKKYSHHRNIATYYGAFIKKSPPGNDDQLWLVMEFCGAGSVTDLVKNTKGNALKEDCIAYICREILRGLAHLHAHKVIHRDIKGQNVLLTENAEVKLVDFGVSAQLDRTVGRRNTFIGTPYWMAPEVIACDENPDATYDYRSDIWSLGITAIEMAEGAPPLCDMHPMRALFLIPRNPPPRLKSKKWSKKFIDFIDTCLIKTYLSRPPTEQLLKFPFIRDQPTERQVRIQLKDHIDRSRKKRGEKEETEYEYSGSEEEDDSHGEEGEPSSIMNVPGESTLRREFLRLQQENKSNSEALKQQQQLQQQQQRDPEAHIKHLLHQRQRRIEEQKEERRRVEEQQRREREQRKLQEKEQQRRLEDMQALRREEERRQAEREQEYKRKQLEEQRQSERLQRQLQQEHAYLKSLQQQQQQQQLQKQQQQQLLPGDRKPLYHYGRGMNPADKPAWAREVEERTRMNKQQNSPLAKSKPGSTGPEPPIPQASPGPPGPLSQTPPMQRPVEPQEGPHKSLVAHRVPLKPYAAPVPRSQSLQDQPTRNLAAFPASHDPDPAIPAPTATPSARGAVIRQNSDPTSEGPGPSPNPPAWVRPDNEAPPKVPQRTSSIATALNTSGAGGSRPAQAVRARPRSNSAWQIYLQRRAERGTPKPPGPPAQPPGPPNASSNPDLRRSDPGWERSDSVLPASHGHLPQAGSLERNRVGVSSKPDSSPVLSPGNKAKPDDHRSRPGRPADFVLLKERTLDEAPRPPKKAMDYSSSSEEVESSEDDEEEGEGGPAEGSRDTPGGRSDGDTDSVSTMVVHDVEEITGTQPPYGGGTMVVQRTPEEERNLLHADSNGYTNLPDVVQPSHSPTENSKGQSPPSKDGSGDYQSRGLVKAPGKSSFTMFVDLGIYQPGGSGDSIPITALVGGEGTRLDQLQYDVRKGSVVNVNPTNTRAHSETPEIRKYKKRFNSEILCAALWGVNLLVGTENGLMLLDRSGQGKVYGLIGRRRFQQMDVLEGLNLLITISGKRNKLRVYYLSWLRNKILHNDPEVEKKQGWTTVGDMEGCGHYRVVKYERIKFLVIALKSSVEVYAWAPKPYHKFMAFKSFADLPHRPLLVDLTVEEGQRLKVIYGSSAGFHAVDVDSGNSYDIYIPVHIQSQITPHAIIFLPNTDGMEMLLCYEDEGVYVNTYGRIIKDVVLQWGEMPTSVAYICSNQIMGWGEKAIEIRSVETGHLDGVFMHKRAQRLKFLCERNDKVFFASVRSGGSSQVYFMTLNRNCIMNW
Chain of Tyrosine-protein kinase receptor UFO (Homo sapiens) (P30530 whole entry, the tested form may be a part): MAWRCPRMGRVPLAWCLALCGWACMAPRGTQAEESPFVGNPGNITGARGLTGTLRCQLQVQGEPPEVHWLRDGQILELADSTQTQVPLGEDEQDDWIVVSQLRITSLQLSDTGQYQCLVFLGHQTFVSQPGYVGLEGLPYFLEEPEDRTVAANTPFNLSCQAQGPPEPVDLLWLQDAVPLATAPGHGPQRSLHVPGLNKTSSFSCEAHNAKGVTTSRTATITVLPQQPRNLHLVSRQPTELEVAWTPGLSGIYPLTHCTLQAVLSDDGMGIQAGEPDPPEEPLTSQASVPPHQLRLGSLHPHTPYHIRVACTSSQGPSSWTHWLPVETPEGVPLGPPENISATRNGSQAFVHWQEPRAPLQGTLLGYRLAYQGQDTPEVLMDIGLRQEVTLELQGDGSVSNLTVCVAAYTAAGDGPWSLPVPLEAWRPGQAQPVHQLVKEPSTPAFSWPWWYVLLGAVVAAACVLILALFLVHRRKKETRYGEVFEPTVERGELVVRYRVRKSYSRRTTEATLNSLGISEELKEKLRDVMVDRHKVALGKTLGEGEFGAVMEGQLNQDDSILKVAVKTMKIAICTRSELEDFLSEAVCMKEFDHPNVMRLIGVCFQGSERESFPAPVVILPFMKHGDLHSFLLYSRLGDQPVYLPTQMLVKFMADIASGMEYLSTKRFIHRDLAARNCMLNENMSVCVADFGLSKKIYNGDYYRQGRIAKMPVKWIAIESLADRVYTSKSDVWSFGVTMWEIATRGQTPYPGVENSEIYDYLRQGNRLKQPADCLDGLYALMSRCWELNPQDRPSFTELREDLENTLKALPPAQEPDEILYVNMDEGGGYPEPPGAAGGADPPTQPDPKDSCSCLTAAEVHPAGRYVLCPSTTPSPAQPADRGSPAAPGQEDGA
Chain of Ephrin type-A receptor 7 (Homo sapiens) (Q15375 28-998 limits assumed): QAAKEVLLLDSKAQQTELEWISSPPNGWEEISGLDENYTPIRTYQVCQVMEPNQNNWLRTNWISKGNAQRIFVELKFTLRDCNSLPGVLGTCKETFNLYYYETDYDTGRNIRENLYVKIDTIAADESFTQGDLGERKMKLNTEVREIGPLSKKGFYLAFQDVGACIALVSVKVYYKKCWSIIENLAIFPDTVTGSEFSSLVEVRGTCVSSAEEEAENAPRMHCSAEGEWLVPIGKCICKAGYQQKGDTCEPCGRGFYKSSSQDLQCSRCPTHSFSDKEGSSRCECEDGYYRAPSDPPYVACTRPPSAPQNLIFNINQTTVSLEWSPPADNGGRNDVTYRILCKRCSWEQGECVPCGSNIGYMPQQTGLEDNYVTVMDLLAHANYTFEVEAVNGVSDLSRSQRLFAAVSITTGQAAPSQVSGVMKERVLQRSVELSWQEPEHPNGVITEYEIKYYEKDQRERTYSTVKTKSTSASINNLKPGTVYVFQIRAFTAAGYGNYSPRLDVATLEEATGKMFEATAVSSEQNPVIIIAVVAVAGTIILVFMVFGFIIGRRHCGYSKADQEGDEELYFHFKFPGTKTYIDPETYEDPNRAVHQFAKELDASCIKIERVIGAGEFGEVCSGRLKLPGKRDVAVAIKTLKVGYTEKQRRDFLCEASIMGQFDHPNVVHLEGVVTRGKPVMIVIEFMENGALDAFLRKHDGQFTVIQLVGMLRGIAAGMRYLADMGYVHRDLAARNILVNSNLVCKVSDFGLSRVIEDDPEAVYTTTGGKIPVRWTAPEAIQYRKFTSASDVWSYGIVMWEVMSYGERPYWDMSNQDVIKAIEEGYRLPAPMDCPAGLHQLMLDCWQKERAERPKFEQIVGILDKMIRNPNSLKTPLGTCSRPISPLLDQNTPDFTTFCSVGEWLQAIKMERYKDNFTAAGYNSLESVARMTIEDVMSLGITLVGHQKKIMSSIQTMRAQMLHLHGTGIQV
Chain of Serine/threonine-protein kinase PAK 6 (Homo sapiens) (Q9NQU5 whole entry, looked up, the tested form may be a part): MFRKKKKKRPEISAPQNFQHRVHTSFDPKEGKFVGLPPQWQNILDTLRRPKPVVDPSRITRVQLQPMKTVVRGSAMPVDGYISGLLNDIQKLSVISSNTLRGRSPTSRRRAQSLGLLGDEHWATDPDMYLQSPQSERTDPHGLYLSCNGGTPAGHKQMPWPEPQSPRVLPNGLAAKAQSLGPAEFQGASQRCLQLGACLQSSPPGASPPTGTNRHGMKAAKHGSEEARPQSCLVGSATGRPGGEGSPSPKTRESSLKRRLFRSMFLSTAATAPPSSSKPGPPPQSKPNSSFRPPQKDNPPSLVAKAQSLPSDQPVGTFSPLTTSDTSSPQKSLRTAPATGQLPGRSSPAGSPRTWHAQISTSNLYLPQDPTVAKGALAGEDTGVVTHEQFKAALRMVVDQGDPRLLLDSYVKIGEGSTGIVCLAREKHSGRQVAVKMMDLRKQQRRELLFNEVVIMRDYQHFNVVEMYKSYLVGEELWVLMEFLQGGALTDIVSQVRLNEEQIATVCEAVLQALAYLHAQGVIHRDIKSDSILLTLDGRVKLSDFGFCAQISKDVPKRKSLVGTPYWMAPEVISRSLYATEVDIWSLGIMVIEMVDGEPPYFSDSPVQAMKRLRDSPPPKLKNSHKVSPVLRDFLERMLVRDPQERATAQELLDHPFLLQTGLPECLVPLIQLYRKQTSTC

Structure (SMILES): CC(C)Nc1sc(C(=O)c2ccc(Cl)s2)c(N)c1C#N
- Activity [1]: 95%
- Activity [2]: 80%
- Activity [3]: 100%
- Activity [4]: 83%
- Activity [5]: 75%
- Activity [6]: 89%
- Activity [7]: 60%
- Activity [8]: 82%
- Activity [9]: 79%
- Activity [10]: 100%
- Activity [11]: 92%
- Activity [12]: 82%
- Activity [13]: 92%
- Activity [14]: 55%
- Activity [15]: 100%
- Activity [16]: 100%
- Activity [17]: 100%
- Activity [18]: 100%
- Activity [19]: 100%
- Activity [20]: 87%
- Activity [21]: 93%
- Activity [22]: 79%
- Activity [23]: 85%
- Activity [24]: 92%
- Activity [25]: 64%
